This note sets out measurements from US5859067A, “Use of natural products and related synthetic compounds for the treatment of cardiovascular disease” (priority 1993, dated 1999).

The target of data set [1] is T1, human erythrocyte plasma membrane Ca^2+ -ATPase (Homo sapiens, UniProt P23634).
T1 construct: Calmodulin-depleted erythrocyte membranes were prepared by continuous filtration through a hollow fibre; tissue New South Wales Red Cross Transfusion Service, Sydney; host or cells: human packed red blood cells (calmodulin-depleted erythrocyte membranes)
The experiment in a line: Ca^2+ -ATPase assay (erythrocyte membranes; Table 1). It is filed as biochemical. As to the method: Natural and synthetic compounds of formula (I) were tested for their ability to influence human erythrocyte plasma membrane Ca^2+ -ATPase.
Packed cells were obtained from the New South Wales Red Cross Transfusion Service, Sydney. The whole preparation was carried out at 4° C. 1 unit of packed red cells was washed 3 times with isotonic buffer, containing 130 mM KCl, 20 mM Tris-HCl (pH 7.4), and the cells were collected by centrifugation at 4,000 RPM. The cells were haemolysed by the buffer containing 1 mM EDTA, 10 mM Tris-Hcl (pH 7.4), 0.5 mM PMSF (phenylmethyl sulfonyl fluoride). The haemolyzate mixture was passed through the hollow fibre system until the membrane appeared white, and then washed with 10 mM potassium Hepes (pH 7.4). The membranes were collected by centrifugation at 10,000 RPM for 20 min, the membranes were resuspended in storage buffer containing 130 mM KCl, 2 mM dithiothreitol, 0.5 mM MgCl2, 20 mM potassium-Hepes (pH 7.5). The membranes with protein concentration of 1.5-5.4 mg/ml were stored at -80° C. until required.
Erythrocyte membranes (0.071-0.098 mg/ml) were incubated at 37° C. for one hour in a total volume of 0.4 ml of 65 mM KCl, 20 mM potassium-Hepes, 5 mM MgCl2, 50 μM CaCl2, 0.1 μm calmodulin, 0.1 mM EGTA. The reaction was started by adding 2 mM ATP(pH 7.4). […] The activity of the Mg^2+ -ATPase (assayed in the absence of added CaCl2) was subtracted from the total activity assayed in the presence of Ca^2+. […] A concentrated solution of the test substances was added to the reaction medium before adding ATP.

Data set [2] relates to brine shrimp (Artemia salina Leach). Kind of data set: Brine shrimp toxicity bioassay. It is filed as in vivo. As to conditions: for LC50: read-out: LC50 brine shrimp. As to the method: There are many applications of the assay including analysis of toxic substances, anaesthetics, morphine-like substances and cocarcinogenicity of phorbol esters.
6 (K Hostettman, ed.), Academ Press, London, 1-32. DMSO solutions of the substances to be tested were added directly to the vials containing the brine shrimp. As the concentration of DMSO that we wished to use was higher than the recommended 1% v/v testing of the toxicity of the DMSO was therefore necessary.
Brine shrimp toxicity was assayed, except for some minor modifications, according to the method of McLaughlin et al as reported in Brine Shrimp: A convenient general bioassay for active plant constituents, B N Meyer, N R Ferrigni, J E Putman, L B Jacobsen, D E Nhols and J L McLaughlin. […] J L McLaughlin. […] 6 (K Hostettman, ed.), Academ Press, London, 1-32. Ten shrimp were added transferred to each of the vials and the volume adjusted to 4.9 mL. Each dose was performed in triplicate, including the control. In quick succession, the appropriate volume of additional DMSO for each dose, required to achieve a final concentration of 2%, was added before the appropriate volume of test solution. The vials were gently mixed and the time noted. After 24 hours, the number of survivors were counted and % mortality was determined.
The LC50 values were expressed in both μM and μg/mL.

Setting [3] is: at 100 μM, read-out: INHIBITION OF Ca^2+ -ATPase PERCENT (%).
[4] abbreviates: read-out: INHIBITION OF Ca^2+ -ATPase IC50.
The mark [5] stands for this setting: read-out: INHIBITION OF Ca^2+ -ATPase PERCENT (%).
Where [6] appears, read: Artemia salina, 24 h, read-out: % Deaths.

Where “and” joins values, the source holds several entries; their conditions need not be identical. Equal entries are not always repeated. Where two headings read alike, the source gives them in different places.

T1 sequence (P23634 1-1205 isoform P23634-6): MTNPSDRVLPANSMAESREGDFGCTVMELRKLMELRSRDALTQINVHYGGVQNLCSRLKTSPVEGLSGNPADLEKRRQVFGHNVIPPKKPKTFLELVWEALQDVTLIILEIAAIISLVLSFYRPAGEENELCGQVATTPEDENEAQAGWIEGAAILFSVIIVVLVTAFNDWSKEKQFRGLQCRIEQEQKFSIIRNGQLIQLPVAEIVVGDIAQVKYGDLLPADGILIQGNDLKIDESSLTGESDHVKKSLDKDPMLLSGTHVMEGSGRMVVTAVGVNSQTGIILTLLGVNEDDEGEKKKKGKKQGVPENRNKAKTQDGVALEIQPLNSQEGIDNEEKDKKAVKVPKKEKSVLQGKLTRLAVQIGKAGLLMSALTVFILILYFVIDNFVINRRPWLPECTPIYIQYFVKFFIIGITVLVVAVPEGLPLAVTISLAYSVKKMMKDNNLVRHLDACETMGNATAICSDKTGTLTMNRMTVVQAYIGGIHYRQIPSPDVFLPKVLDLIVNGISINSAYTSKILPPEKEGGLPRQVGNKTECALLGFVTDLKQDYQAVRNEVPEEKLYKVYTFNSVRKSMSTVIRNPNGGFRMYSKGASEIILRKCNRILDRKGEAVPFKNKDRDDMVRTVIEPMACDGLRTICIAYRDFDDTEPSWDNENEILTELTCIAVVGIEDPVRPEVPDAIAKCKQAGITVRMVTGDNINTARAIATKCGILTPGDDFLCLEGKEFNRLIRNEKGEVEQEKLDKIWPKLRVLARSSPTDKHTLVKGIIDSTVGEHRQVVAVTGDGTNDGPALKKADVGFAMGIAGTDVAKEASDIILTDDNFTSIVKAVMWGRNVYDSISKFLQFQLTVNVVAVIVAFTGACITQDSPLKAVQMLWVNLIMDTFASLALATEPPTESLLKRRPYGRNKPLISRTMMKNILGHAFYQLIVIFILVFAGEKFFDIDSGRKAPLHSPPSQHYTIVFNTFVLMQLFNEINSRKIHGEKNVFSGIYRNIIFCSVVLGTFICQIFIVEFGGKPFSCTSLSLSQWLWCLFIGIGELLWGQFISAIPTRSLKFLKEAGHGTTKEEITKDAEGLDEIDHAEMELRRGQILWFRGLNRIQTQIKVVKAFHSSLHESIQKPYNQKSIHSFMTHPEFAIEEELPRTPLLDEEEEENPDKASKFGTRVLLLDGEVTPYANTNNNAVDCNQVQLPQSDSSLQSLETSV
T1 sequence (P35613 140-385 partner limits assumed): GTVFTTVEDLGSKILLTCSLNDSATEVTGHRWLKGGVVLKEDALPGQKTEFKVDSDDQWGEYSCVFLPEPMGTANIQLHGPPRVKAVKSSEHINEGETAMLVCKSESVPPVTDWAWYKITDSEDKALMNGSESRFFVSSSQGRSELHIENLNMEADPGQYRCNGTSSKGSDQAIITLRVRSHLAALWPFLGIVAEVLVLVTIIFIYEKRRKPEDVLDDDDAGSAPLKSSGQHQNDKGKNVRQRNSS

`CCCCCCCCCCc1cc(O)cc(O)c1C(=O)OCC` [ethyl 2,4-dihydroxy-6-decylbenzoate]: the inhibition at 100 µM in data set [1] (setting [3]) was determined as 60%. Also, the IC50 in data set [1] (setting [4]) was found to be 85 µM. Further, in data set [2] (Artemia salina, 24 hours), the LC50 is 2.3 µM and 0.75 µg/mL.

With `CCCCCCCCCc1ccc(O)cc1` [4-nonylphenol], the IC50 in data set [1] came to 114 µM. Also, in data set [1] (setting [5]), the inhibition at 100 µM worked out at 22%. Besides, the LC50 in data set [2] (Artemia salina, 24 h) was 400 nM and 0.088 µg/mL.

With `CCCCCCCCC(=O)c1ccc(O)cc1` [4-nonanoylphenol], the LC50 in data set [2] (24 hours) is 0.1 µM; in data set [2] (Artemia salina, 24 hours), 100 nM and 0.024 µg/mL.

As to `CCCCCCCCCc1cc(O)cc(O)c1` [5-nonylresorcinol], the inhibition at 100 µM in data set [1] (setting [3]) stood at 44%. Besides, the IC50 in data set [1] (setting [4]) came to 108 µM. The LC50 in data set [2] (Artemia salina, 24 hours) was > 100 µM and > 18 µg/mL.

`Oc1ccccc1C1CCCCC1` [2-cyclohexylphenol] registered an IC50 in data set [1] of 186 µM. Also, the inhibition at 100 µM in data set [1] (setting [5]) turned out to be 28%. Also, in data set [2] (Artemia salina, 24 hours), the LC50 was > 25 µM and > 4.4 µg/mL.

Turning to `CC(C)=CCC/C(C)=C/CC/C(C)=C/Cc1c(C)cc(O)cc1O` [neogrifolin, 4-E,E-farnesyl-5-methyl-resorcinol], the “Ca^2+ -ATPase inhibitory activity (in words)” value in data set [1] was “most potent among the alkyl and alkenyl resorcinols tested”. Moreover, the inhibition at 100 µM in data set [1] (setting [3]) was 100%. Further, the IC50 in data set [1] (setting [4]) came out at 23.3 µM. Also, in data set [2] (Artemia salina, 24 hours), the LC50 is 28 µM and 9 µg/mL. Besides, the “relative toxicity to brine shrimp” value in data set [2] (neogrifolin compared with grifolin) is reported as “about ten-fold weaker”.

Take `Oc1ccc(C2CCCCC2)cc1` [4-cyclohexylphenol]: the IC50 in data set [1] stood at 271 µM. Also, the inhibition at 100 µM in data set [1] (setting [3]) amounted to 16%. Further, the LC50 in data set [2] (Artemia salina, 24 h) was > 25 µM and > 4.4 µg/mL.

Regarding `CCCCCCCCC(=O)c1ccccc1O` [2-nonanoylphenol], the inhibition at 100 µM in data set [1] (setting [3]) is 32%. For the same compound, the IC50 in data set [1] (setting [4]) was greater than 100 µM. For the same compound, the LC50 in data set [2] (Artemia salina, 24 hours) is 630 nM and 0.15 µg/mL.

For `Cc1cc(C(C)(C)C)c(O)c(C(C)(C)C)c1` [BHT, 2,6-di-tert-butyl-4-methylphenol, reference compound], in data set [1] (setting [3]), the inhibition at 100 µM was 69%. For the same compound, the concentration for half-maximal inhibition (IC50) in data set [1] (setting [4]) worked out at 66 µM.

Consider `Cc1cc(Cc2cc(C)cc(C(C)(C)C)c2O)c(O)c(C(C)(C)C)c1` [2,2'-methylenebis(4-methyl-6-tert-butylphenol), reference compound], for which, in data set [1] (setting [4]), the IC50 was 45 µM. The inhibition at 100 µM in data set [1] (setting [5]) turned out to be 74%.

In the case of `CC(C)(C)c1cc(C(C)(C)C)c(O)c(C(C)(C)C)c1` [2,4,6-tri-tert-butylphenol, reference compound], inhibition in data set [1] was half-maximal at 15 µM (IC50). In addition, the inhibition at 100 µM in data set [1] (setting [3]) came out at 79%.

For the compound `Cc1c(O)cc(CCCCCCCCCCc2cc(O)c(C)c(O)c2)cc1O` [1,10-bis(3,5-dihydroxy-4-methylphenyl)decane], in data set [2] (Artemia salina, 24 hours), the LC50 was > 25 µM and > 9.7 µg/mL.

Regarding `Cc1c(O)cc(CCCCCCCCCCCCCCc2cc(O)cc(O)c2)cc1O` [grebustol-A, 1-(3,5-dihydroxy-phenyl)-14-(3,5-dihydroxy-4-methylphenyl)tetradecane], in data set [1] (at 50 μM, read-out: INHIBITION OF Ca^2+ -ATPase PERCENT (%)), the inhibition at 50 µM came out at 100%. In addition, the IC50 in data set [1] (setting [4]) stood at 17 µM.

In the case of `Cc1cc(CCCCCCCCCCc2cccc(C)c2O)ccc1O` [1-(2-hydroxy-3-methylphenyl)-10-(4-hydroxy-3-methylphenyl)decane], the LC50 in data set [2] (Artemia salina, 24 hours) was 2.2 µM and 0.78 µg/mL.

On to `CCCCCCc1ccc(O)cc1O` [4-hexylresorcinol, reference compound], for which, in data set [1] (setting [3]), the inhibition at 100 µM was 17%. For the same compound, the half-maximal inhibitory concentration (IC50) in data set [1] (setting [4]) worked out at 259 µM. Also, in data set [2] (Artemia salina, 24 hours), the LC50 was 62 µM and 12 µg/mL.

Take `Oc1ccccc1CCCCCCCCCCCCCCc1ccccc1O` [1,14-bis(2-hydroxyphenyl)tetradecane]: the inhibition at 100 µM in data set [1] (setting [3]) came out at 84%. Besides, the half-inhibitory concentration (IC50) in data set [1] (setting [4]) was determined as 28 µM. Also, the median lethal concentration (LC50) in data set [2] (Artemia salina, 24 hours) is 1.9 µM and 0.72 µg/mL.

With `Oc1ccc(CCCCCCCCCCCCc2ccccc2O)cc1` [1-(2-hydroxyphenyl)-12-(4-hydroxyphenyl)dodecane], the inhibition at 100 µM in data set [1] (setting [3]) was determined as 99%. For the same compound, the 50% inhibitory concentration (IC50) in data set [1] (setting [4]) was found to be 18.8 µM. Also, the LC50 in data set [2] (Artemia salina, 24 hours) is 54 nM and 0.019 µg/mL.

In the case of `Oc1ccc(CCCCCCCCCCCCCCc2ccc(O)cc2)cc1` [1,14-bis(4-hydroxyphenyl)tetradecane], in data set [1] (setting [3]), the inhibition at 100 µM came to 5%. The 50% inhibitory concentration (IC50) in data set [1] (setting [4]) amounted to 280 µM. The LC50 in data set [2] (Artemia salina, 24 hours) was 7.9 µM and 3.7 µg/mL.

Turning to `Oc1ccc(CCCCCCCCCCCCCCc2ccccc2O)cc1` [1-(2-hydroxyphenyl)-14-(4-hydroxyphenyl)tetradecane], the inhibition at 100 µM in data set [1] (setting [3]) amounted to 60%. Besides, the IC50 in data set [1] (setting [4]) turned out to be 81 µM. Also, the LC50 in data set [2] (Artemia salina, 24 hours) is 3.7 µM and 1.4 µg/mL.

As for `Oc1ccc(CCCCCCCCCCCCc2ccc(O)cc2)cc1` [1,12-bis(4-hydroxyphenyl)dodecane], the LC50 in data set [2] (Artemia salina, 24 hours) was 3.8 µM and 1.4 µg/mL.

Take `CCCCCc1cc(O)cc(O)c1` [5-pentylresorcinol (olivetol), 5-pentylresorcinol, reference compound]: the LC50 in data set [2] (Artemia salina, 24 h) is > 100 µM and > 18 µg/mL.

`CCCCCCCCCc1cc(O)c(C)c(O)c1` [2-methyl-5-nonyl-resorcinol]: the median lethal concentration (LC50) in data set [2] (Artemia salina, 24 hours) was 8.3 µM and 2.1 µg/mL.

For `Cc1c(O)cc(CCCCCCCCCCCCc2cc(O)c(C)c(O)c2)cc1O` [1,12-bis(3,5-dihydroxy-4-methylphenyl)dodecane], the LC50 in data set [2] (Artemia salina, 24 hours) is > 25 µM and > 10 µg/mL.

As to `CC(C)(C)c1cc(O)c(O)c(C(C)(C)C)c1` [3,5-di-tert-butyl-catechol, reference compound], the inhibition at 100 µM in data set [1] (setting [3]) turned out to be 76%. The IC50 in data set [1] (setting [4]) amounted to 84 µM.

Take `CCCCCCCCCCCCc1cc2c(C)cc(=O)oc2cc1O` [6-dodecyl-7-hydroxy-4-methylcoumarin]: in data set [2] (Artemia salina, 24 hours), the LC50 is > 25 µM and > 8.1 µg/mL.

For the compound `CCCCCCCCCCCCCCCCCc1cc(O)cc(O)c1` [5-heptadecylresorcinol], the LC50 in data set [2] (Artemia salina, 24 hours) was > 100 µM and > 18 µg/mL.

With `Oc1cc(O)cc(CCCCC/C=C\CCCCCCCc2cc(O)cc(O)c2)c1` [grebustol-B, 1,14-bis(3,5-dihydroxyphenyl)tetradec-Z-6-ene], the “Ca^2+ -ATPase inhibitory activity (in words)” value in data set [1] was “weaker”. The inhibition at 100 µM in data set [1] (setting [3]) stood at 90%. In data set [1] (setting [4]), the IC50 stood at 50 µM.

Consider “nonylphenol [nonylphenol (commercial), reference compound]”, for which the “INHIBITION OF Ca^2+ -ATPase PERCENT (%)” value in data set [1] (at 100 μM) stood at 100%. Also, in data set [1] (setting [4]), the IC50 is 27.5 µM.

As for `C[S+](C)[O-]` [DMSO, dimethyl sulfoxide], the “toxicity to brine shrimp (in words)” value in data set [2] (24 hours) is on record as “No toxicity towards brine shrimp was observed”. For the same compound, in data set [2] (setting [6]), the mortality at 1 % was determined as 0%, the mortality at 2 % was 0%, the mortality at 3 % was 0% and the mortality at 4 % was determined as 0%. Moreover, in data set [2] (setting [6]), the mortality at 5 % is 9%, the mortality at 7 % was determined as 12%, the mortality at 9 % was found to be 18% and the mortality at 11 % stood at 57%. Moreover, in data set [2] (setting [6]), the mortality at 13 % turned out to be 96%, the mortality at 15 % amounted to 100%, the mortality at 20 % is 100% and the mortality at 25 % worked out at 100%. The “LC50 brine shrimp, solvent” value in data set [2] (solvent) is recorded as 11 % v/v.

In the case of `Cc1c(O)cc(CCCCCCCCc2cc(O)c(C)c(O)c2)cc1O` [1,8-bis(3,5-dihydroxy-4-methylphenyl)octane], in data set [2] (Artemia salina, 24 hours), the LC50 was > 25 µM and > 9 µg/mL.

Take `CC(C)(C)CC(C)(C)c1ccc(O)cc1` [4-tert-octylphenol, reference compound]: half-maximal inhibition in data set [1] (IC50) required 60 µM. The inhibition at 100 µM in data set [1] (setting [5]) turned out to be 94%.

By inhibition is commonly meant how much of the control response was suppressed. In general, IC50 refers to the concentration that inhibits the measured activity by half. For orientation: LC50 means the concentration that kills 50% of the test population.
